Here are results for 19 compounds from US5300672A (priority 1992, dated 1994).

The MIC is the least concentration at which growth counts as inhibited.

Assay [1] relates to Erysiphe graminis (f. sp. tritici). Briefly: whole plant or invertebrate. The format is in vivo. The conditions noted are these: Blumeria graminis; read-out: % Control WPM.
The test system of another assay is Piricularia oryzae. Briefly: whole plant or invertebrate. In kind it is in vivo. The settings on record: Pyricularia oryzae; for pest or weed control at 200 ppm: read-out: % Control RB, application rate 200 ppm; for pest or weed control at 100 ppm: read-out: % Control RB, application rate 100 ppm.
Assay [2] deals with Puccinia recondita (f. sp. tritici Races PKB and PLD). Briefly: whole plant or invertebrate. The conditions noted are these: Puccinia recondita, 240 h; read-out: % Control WLR. In kind it is in vivo.
The subject of assay [3] is Pseudoperonospora cubensis. Briefly: whole plant or invertebrate. The conditions noted are these: Pseudoperonospora cubensis, in Cucumis sativus, 168 h; read-out: % Control CDM. In kind it is in vivo.
For the next assay, the system named is Pseudomonas fluorescens. Briefly: Alternate Minimum Inhibitory Concentrations Test (Table 4), Ps.fl. In kind it is cell-based. The conditions noted are these: Table 4 alternate test; for MIC: Pseudomonas fluorescens, 250 ppm to 0.8 ppm in TSB, 72 hours, 30° C., read-out: MIC Ps.fl; for MIC Ps.fl (I = inactive): class symbol. As for the experimental part:
The compounds of Examples 1-8, 12-26, 28-33, 36-37, 39-42, 44-109, 111-114, and 116-120 were subjected also to the following alternate biocidal activity test procedures with the results as indicated in Table 4.
The MIC test measures the viability of Pseudomonas fluorescens inoculum in TSB when exposed for 72 hours to varying concentrations of test compound.
A 125 μl aliquot of 10,000 ppm test compound in acetone was added to 4.88 ml of TSB to provide a 250 ppm solution. From this solution, 100 μL was transferred to the first row of two microtiter plate columns. Both replicates and five additional compounds were all serially diluted 1:1 to a final concentration of 0.8 ppm in TSB.
Inoculation was accomplished by diluting a 24 hr Ps fl culture, four mls per 36 mls of phosphate buffer solution. A Dynatech autoinoculator was used to transfer 1.5 μl of this cell suspension to the microtiter plates. The plates were incubated at 30° C. for 3 days before the lowest concentration at which no growth occurs was recorded in the database.

The next assay has as its system Phytophthora infestans. In words: whole plant or invertebrate. The format is in vivo. The settings on record: Phytophthora infestans, in Solanum lycopersicum, 96 h.
For assay [4], the system named is Pellicularia filamentosa (f. sp. sasiki). In words: whole plant or invertebrate. In kind it is in vivo. The settings on record: 120 h; read-out: % Control RSB.
Setting [5] is: read-out: % Control TLB, application rate 200 ppm.
Where [6] appears, read: read-out: % Control TLB, application rate 100 ppm.

Read-outs that look alike come from different tables or passages of the source.

Turning to `CCCCCCCCNC(=O)/C=C\SC(=O)c1ccc(Cl)cc1Cl` [Compound 100, N-octyl-cis-3-[(2,4-dichlorobenzoyl)thio]acrylamide], the pest or weed control at 200 ppm in assay [1] is 50%; in the assay with Piricularia oryzae, 0%; in assay [2] it was 0%; in assay [3], 50%; in the assay on Phytophthora infestans (setting [5]) it was 0%. Further, the MIC in the assay with Pseudomonas fluorescens is above 250 µg/mL.

As to `CCCCCCCCNC(=O)/C=C\SC(=O)c1ccc(Cl)c([N+](=O)[O-])c1` [Compound 104, N-octyl-cis-3-[(3-nitro-4-chlorobenzoyl)thio]acrylamide], the pest or weed control at 200 ppm in assay [1] stood at 0%; in the assay with Piricularia oryzae, 50%; in assay [2], 0%; in assay [3] it was 0%; in the assay on Phytophthora infestans (setting [5]) it was 0%. The MIC in the assay with Pseudomonas fluorescens was above 250 µg/mL.

`CCCCCCCCNC(=O)/C=C\SC(=O)c1cnccc1Cl` [Compound 108, N-octyl-cis-3-[(4-chloro-3-pyridine)carbonylthio]acrylamide]: the pest or weed control at 200 ppm in assay [1] amounted to 0%; with Piricularia oryzae, 0%; in assay [2], 0%; in assay [3], 90%; in the assay with Phytophthora infestans (read-out: % Control TLB) it was 90%. Moreover, the MIC with Pseudomonas fluorescens was above 250 µg/mL.

Consider `CCCCCCCCNC(=O)/C=C\SC(=O)/C=C/C=C/c1ccccc1` [Compound 109, N-octyl-cis-3-[(trans,trans-5-phenyl-2,4-pentadienoyl)thio]acrylamide], for which the pest or weed control at 200 ppm in assay [1] stood at 0%; with Piricularia oryzae it was 0%; in assay [2], 0%; in assay [3], 50%; in the assay with Phytophthora infestans (setting [5]), 0%. Also, the MIC with Pseudomonas fluorescens is above 250 µg/mL.

As for `CCCCCCCCNC(=O)/C=C\SC(=O)CCCCCCCCC(=O)OC` [Compound 119, N-octyl-cis-3-[(9-methoxycarbonylnonanoyl)thio]acrylamide], the pest or weed control at 200 ppm in assay [1] came to 0%; in the assay with Piricularia oryzae it was 50%; in assay [2] it was 0%; in assay [3], 70%; in the assay with Phytophthora infestans (read-out: % Control TLB), 80%. In addition, in the assay on Pseudomonas fluorescens, the “MIC Ps.fl (I = inactive)” value is given as “I”.

`CCCCCCCCNC(=O)/C=C\SC(=O)c1cccc(Cl)c1Cl` [Compound 102, N-octyl-cis-3-[(2,3-dichlorobenzoyl)thio]acrylamide]: the pest or weed control at 200 ppm is 0% in assay [1]; 50% in the assay on Piricularia oryzae; 0% in assay [2]; 50% in assay [3]; 0% in the assay with Phytophthora infestans (setting [5]). For the same compound, the minimal inhibitory concentration (MIC) in the assay with Pseudomonas fluorescens was above 250 µg/mL.

As to `CCCCCCCCNC(=O)/C=C\SC(=O)c1ccc(C)cc1` [Compound 106, N-octyl-cis-3-[(4-methylbenzoyl)thio]acrylamide], the pest or weed control at 200 ppm in assay [1] turned out to be 0%; in the assay with Piricularia oryzae, 0%; in assay [2] it was 0%; in assay [3] it was 50%; with Phytophthora infestans (setting [5]), 0%. Also, the MIC in the assay on Pseudomonas fluorescens is above 250 µg/mL.

As to `CCCCCCCCNC(=O)/C=C\SC(=O)CCCCCCCC(=O)OC` [Compound 117, N-octyl-cis-3-[(8-methoxycarbonyloctanoyl)thio]acrylamide], the pest or weed control at 200 ppm (in assay [1]; with Piricularia oryzae; in assay [2]; in the assay on Phytophthora infestans (setting [5])) was 0% throughout. Further, the pest or weed control at 50 ppm in assay [3] amounted to 95%. For the same compound, the “MIC Ps.fl (I = inactive)” value in the assay with Pseudomonas fluorescens is “I”.

Turning to `CCCCCCCCNC(=O)/C=C\SC(=O)c1cccc(OC)c1` [Compound 8, N-octyl-cis-3-[(3-methoxybenzoyl)thio]acrylamide], the pest or weed control at 100 ppm in assay [1] was found to be 0%; in the assay on Piricularia oryzae, 80%; in assay [2] it was 0%; in assay [4], 0%; in the assay with Phytophthora infestans (read-out: % Control TLB), 80%. Moreover, the MIC in the assay with Pseudomonas fluorescens was above 250 µg/mL.

`CCCCCCCCNC(=O)/C=C\SC(=O)CCCCCCC` [Compound 23, N-octyl-cis-3-(octanoylthio)acrylamide]: the pest or weed control at 100 ppm in assay [1] is 0%; in the assay on Piricularia oryzae it was 0%; in assay [2], 0%; in assay [4] it was 80%; in the assay with Phytophthora infestans (setting [6]), 0%. Also, the MIC in the assay on Pseudomonas fluorescens is above 250 µg/mL.

Turning to `CCCCCCCCNC(=O)/C=C\SC(=O)CCCCCCC(=O)OC` [Compound 110, N-octyl-cis-3-[(7-methoxycarbonylheptanoyl)thio]acrylamide], the pest or weed control at 200 ppm stood at 0% in assay [1]; 75% with Piricularia oryzae; 0% in assay [2]; 70% in assay [3]; 90% in the assay with Phytophthora infestans (read-out: % Control TLB).

With `CCCCCCCCNC(=O)/C=C\SC(=O)CCCCC(=O)OC` [Compound 118, N-octyl-cis-3-[(5-methoxycarbonylpentanoyl)thio]acrylamide], the pest or weed control at 200 ppm amounted to 0% in assay [1]; 75% in the assay with Piricularia oryzae; 0% in assay [2]; 100% in assay [3]; 90% in the assay on Phytophthora infestans (read-out: % Control TLB). Moreover, the “MIC Ps.fl (I = inactive)” value in the assay on Pseudomonas fluorescens is “I”.

On to `CCCCCCCCNC(=O)/C=C\SC(=O)CCl` [Compound 31, N-octyl-cis-3-(chloroacetylthio)acrylamide], for which the pest or weed control at 100 ppm in assay [1] was found to be 0%; in the assay with Piricularia oryzae it was 0%; in assay [2] it was 0%; in assay [4], 0%; in the assay with Phytophthora infestans (read-out: % Control TLB), 80%. The minimal inhibitory concentration (MIC) in the assay with Pseudomonas fluorescens is above 250 µg/mL.

For `CCCCCCCCNC(=O)/C=C\SC(=O)CCOc1ccccc1` [Compound 79, N-octyl-cis-3-[(3-phenoxypropanoyl)thio]acrylamide], the pest or weed control at 200 ppm turned out to be 0% in assay [1]; 0% in the assay on Piricularia oryzae; 0% in assay [2]; 0% in assay [4]; 100% with Phytophthora infestans (setting [5]). Besides, the MIC in the assay with Pseudomonas fluorescens was above 250 µg/mL.

`C=CC(=O)S/C=C\C(=O)NCCCCCCCC` [Compound 71, N-octyl-cis-3-(propenoylthio)acrylamide]: the pest or weed control at 12 ppm in assay [1] amounted to 50%. The pest or weed control at 200 ppm in the assay with Piricularia oryzae came out at 0%; in assay [2], 0%; in assay [4], 0%; with Phytophthora infestans (setting [5]), 100%. In addition, the MIC in the assay with Pseudomonas fluorescens is above 250 µg/mL.

Consider `CCCCCCCCNC(=O)/C=C\SC(=O)N1CCCC1` [Compound 32, N-octyl-cis-3-[(1-pyrrolidine)carbonylthio]acrylamide], for which the pest or weed control at 100 ppm in assay [1] was 0%; in the assay with Piricularia oryzae, 0%; in assay [2], 0%; in assay [4] it was 0%; in the assay with Phytophthora infestans (read-out: % Control TLB) it was 80%. Moreover, the MIC in the assay with Pseudomonas fluorescens was above 250 µg/mL.

Take `CCCCCCCCNC(=O)/C=C\SC(=O)c1c(F)cc(F)cc1F` [Compound 28, N-octyl-cis-3-[(2,4,6-trifluorobenzoyl)thio]acrylamide]: the pest or weed control at 100 ppm in assay [1] amounted to 0%; in the assay on Piricularia oryzae it was 90%; in assay [2], 0%; in assay [4], 0%; with Phytophthora infestans (setting [6]), 0%. Besides, the MIC in the assay on Pseudomonas fluorescens is above 250 µg/mL.

As to `C=CCC(=O)S/C=C\C(=O)NCCCCCCCC` [Compound 63, N-octyl-cis-3-[(3-butenoyl)thio]acrylamide], the pest or weed control at 200 ppm in assay [1] turned out to be 0%; in the assay with Piricularia oryzae it was 0%; in assay [2], 0%; in assay [4], 0%; in the assay with Phytophthora infestans (setting [5]) it was 100%. Also, the MIC in the assay on Pseudomonas fluorescens was above 250 µg/mL.

Turning to `CCCCCCCCNC(=O)/C=C\SC(=O)C(Cl)Cl` [Compound 37, N-octyl-cis-3-(dichloroacetylthio)acrylamide], the pest or weed control at 100 ppm in assay [1], in assay [2] and in assay [4] was 0% throughout. Further, the pest or weed control at 25 ppm in the assay on Piricularia oryzae (read-out: % Control RB, application rate 25 ppm) stood at 80%. Besides, the MIC in the assay on Pseudomonas fluorescens is above 250 µg/mL. Besides, the pest or weed control at 6 ppm with Phytophthora infestans (read-out: % Control TLB) stood at 90%.
